Experimental data as given in patent US12685726B2, “Sulfoximines as inhibitors of NaV1.8” (Gruenenthal GmbH, priority 2022, dated 2026).

Biological target: T1, human NaV 1.8 (Homo sapiens, UniProt Q9Y5Y9)
T1 construct: expressed in transfected cells; host or cells: HEK (recombinant cell line)
Assay: Automated whole-cell patch clamp (Qube384) voltage-clamp recordings of sodium currents in HEK-NaV1.8 cell line
Type: cell-based
Conditions: read-out: Potency category (human NaV 1.8 IC50)
Summary of the method: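 HEK cells expressing NaV1.8 with b3, whole-cell automated voltage clamp at room temperature or 19° C.; CsF-based internal, pH 7.4 external. State-dependent (−120 mV, V1/2 4 s, −10 mV test pulses) and 10/20 Hz 40-pulse protocols; ~12 min compound, vehicle-corrected, IC50 by 4-parameter logistic fit.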

T1 sequence (Q9Y5Y9 whole entry): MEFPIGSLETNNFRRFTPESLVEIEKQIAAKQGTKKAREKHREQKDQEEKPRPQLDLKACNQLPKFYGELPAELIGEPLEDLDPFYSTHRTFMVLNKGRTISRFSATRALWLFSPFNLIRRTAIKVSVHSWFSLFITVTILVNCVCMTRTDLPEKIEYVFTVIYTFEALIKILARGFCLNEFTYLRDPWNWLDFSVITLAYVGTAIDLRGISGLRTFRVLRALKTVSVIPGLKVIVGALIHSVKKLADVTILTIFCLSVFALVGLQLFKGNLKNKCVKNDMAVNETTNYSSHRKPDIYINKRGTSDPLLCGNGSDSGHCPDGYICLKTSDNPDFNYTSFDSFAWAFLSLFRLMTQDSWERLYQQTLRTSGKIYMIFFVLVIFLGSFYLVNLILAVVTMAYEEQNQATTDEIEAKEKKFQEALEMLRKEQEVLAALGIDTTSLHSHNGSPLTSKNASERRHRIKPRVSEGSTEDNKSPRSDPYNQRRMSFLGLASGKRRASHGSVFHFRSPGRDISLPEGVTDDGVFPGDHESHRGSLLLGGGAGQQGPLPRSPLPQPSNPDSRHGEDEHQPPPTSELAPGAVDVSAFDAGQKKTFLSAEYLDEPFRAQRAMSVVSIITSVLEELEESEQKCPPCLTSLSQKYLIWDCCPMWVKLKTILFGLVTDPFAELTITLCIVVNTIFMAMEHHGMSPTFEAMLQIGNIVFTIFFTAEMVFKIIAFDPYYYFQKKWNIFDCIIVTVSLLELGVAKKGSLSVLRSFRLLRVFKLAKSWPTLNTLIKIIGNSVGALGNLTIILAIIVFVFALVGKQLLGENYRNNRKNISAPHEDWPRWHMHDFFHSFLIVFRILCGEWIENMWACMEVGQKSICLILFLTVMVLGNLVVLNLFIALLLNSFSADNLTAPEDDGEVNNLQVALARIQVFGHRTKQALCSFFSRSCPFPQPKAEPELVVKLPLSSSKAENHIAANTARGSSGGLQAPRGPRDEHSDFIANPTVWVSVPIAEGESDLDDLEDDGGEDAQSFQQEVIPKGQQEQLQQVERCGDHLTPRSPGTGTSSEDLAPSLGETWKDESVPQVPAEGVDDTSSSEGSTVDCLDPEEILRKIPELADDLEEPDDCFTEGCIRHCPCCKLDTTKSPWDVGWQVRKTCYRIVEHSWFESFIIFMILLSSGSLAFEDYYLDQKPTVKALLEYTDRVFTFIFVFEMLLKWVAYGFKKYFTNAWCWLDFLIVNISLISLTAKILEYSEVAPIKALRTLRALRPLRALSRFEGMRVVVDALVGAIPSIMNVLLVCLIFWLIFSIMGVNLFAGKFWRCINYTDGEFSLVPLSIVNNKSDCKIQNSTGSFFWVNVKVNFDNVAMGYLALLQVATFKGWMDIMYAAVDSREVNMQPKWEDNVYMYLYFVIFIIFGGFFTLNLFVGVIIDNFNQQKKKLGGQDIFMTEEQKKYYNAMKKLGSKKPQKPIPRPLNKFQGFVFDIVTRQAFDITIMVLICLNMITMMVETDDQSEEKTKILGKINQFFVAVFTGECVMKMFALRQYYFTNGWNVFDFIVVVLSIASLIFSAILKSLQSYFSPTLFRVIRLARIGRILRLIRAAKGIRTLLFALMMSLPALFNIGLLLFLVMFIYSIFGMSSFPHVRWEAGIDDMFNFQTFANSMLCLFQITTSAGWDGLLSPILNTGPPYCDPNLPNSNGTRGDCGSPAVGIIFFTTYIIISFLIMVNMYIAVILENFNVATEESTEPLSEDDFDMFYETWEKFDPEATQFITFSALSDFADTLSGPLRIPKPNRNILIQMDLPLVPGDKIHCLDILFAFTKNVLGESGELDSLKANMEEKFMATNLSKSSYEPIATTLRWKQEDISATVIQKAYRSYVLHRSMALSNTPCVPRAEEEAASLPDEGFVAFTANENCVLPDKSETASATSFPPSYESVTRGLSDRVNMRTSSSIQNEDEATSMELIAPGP

IC50, ≤ 0.1 µM:
CS(=N)(=O)c1cc(NC(=O)c2c(C(F)(F)F)c(C3CC3)nn2CC23CC(C(F)(F)F)(C2)C3)ccn1 (single isomer, unassigned) [Example 23a, 3-cyclopropyl-N-(2-(S-methylsulfonimidoyl)pyridin-4-yl)-4-(trifluoromethyl)-1-((3-(trifluoromethyl)bicyclo[1.1.1]pentan-1-yl)methyl)-1H-pyrazole-5-carboxamide]
Cc1cc(NC(=O)c2c(C(F)(F)F)c(C3CC3)nn2CC2(C)CC(F)(F)C2)cc(S(C)(=N)=O)n1 (single isomer, unassigned) [Example 50b, 3-cyclopropyl-1-((3,3-difluoro-1-methylcyclobutyl)methyl)-N-(2-methyl-6-(S-methylsulfonimidoyl)pyridin-4-yl)-4-(trifluoromethyl)-1H-pyrazole-5-carboxamide]
CS(=N)(=O)c1cc(NC(=O)c2c(C(F)(F)F)c(C3CC3)nn2C[C@H]2CCC(F)(F)C2)ccn1 (single isomer, unassigned) [Example 17a]
CC1(Cn2nc(C34CC(F)(C3)C4)c(C(F)(F)F)c2C(=O)Nc2ccnc(S(C)(=N)=O)c2)CC(F)(F)C1 (single isomer, unassigned) [Example 110b, 1-((3,3-Difluoro-1-methylcyclobutyl)methyl)-3-(3-fluorobicyclo[1.1.1]pentan-1-yl)-N-(2-(S-methylsulfonimidoyl)pyridin-4-yl)-4-(trifluoromethyl)-1H-pyrazole-5-carboxamide]
CC1(Cn2nc(C34CC(F)(C3)C4)c(C(F)(F)F)c2C(=O)Nc2ccnc(S(C)(=N)=O)c2)CC(F)(F)C1 (single isomer, unassigned) [Example 110a, 1-((3,3-Difluoro-1-methylcyclobutyl)methyl)-3-(3-fluorobicyclo[1.1.1]pentan-1-yl)-N-(2-(S-methylsulfonimidoyl)pyridin-4-yl)-4-(trifluoromethyl)-1H-pyrazole-5-carboxamide]
CC1(Cn2nc(C3CC3F)c(C(F)(F)F)c2C(=O)Nc2ccnc(S(C)(=N)=O)c2)CC(F)(F)C1 (single isomer, unassigned) [Example 62b, 1-((3,3-Difluoro-1-methylcyclobutyl)methyl)-3-(2-fluorocyclopropyl)-N-(2-(S-methylsulfonimidoyl)pyridin-4-yl)-4-(trifluoromethyl)-1H-pyrazole-5-carboxamide]
CS(=N)(=O)c1cc(NC(=O)c2c(C(F)(F)F)c(C3CC3)nn2CC23CC(F)(C2)C3)ccn1 (single isomer, unassigned) [Example 25a, 3-cyclopropyl-1-((3-fluorobicyclo[1.1.1]pentan-1-yl)methyl)-N-(2-(S-methylsulfonimidoyl)pyridin-4-yl)-4-(trifluoromethyl)-1H-pyrazole-5-carboxamide]
CS(=N)(=O)c1cc(NC(=O)c2c(C(F)(F)F)c(C3CC3)nn2C[C@H]2CCC(F)(F)C2)ccn1 (single isomer, unassigned) [Example 17b]
CS(=N)(=O)c1cc(NC(=O)c2c(C(F)(F)F)c(C3CC3)nn2CC23CC2CC(F)(F)C3)ccn1 (single isomer, unassigned) [Example 95b, 3-Cyclopropyl-1-((3,3-difluorobicyclo[3.1.0]hexan-1-yl)methyl)-N-(2-(S-methylsulfonimidoyl)pyridin-4-yl)-4-(trifluoromethyl)-1H-pyrazole-5-carboxamide]
Cc1c(C(C)(F)F)nn(CC2CCC(F)(F)CC2)c1C(=O)Nc1ccnc(S(C)(=N)=O)c1 (single isomer, unassigned) [Example 9b, 1-((4,4-difluorocyclohexyl)methyl)-3-(1,1-difluoroethyl)-4-methyl-N-(2-(S-methylsulfonimidoyl)pyridin-4-yl)-1H-pyrazole-5-carboxamide]
C[S@@](=N)(=O)c1cc(NC(=O)c2c(C(F)(F)F)c(C3CC3)nn2C[C@H]2CC23CC3)ccn1 (single isomer, unassigned) [Example 78c, 3-cyclopropyl-N-(2-(S-methylsulfonimidoyl)pyridin-4-yl)-1-(spiro[2.2]pentan-1-ylmethyl)-4-(trifluoromethyl)-1H-pyrazole-5-carboxamide]
CC1(Cn2nc(C3CCCC3)c(C(F)(F)F)c2C(=O)Nc2ccnc(S(C)(=N)=O)c2)CC(F)(F)C1 (single isomer, unassigned) [Example 59b, 3-Cyclopentyl-1-((3,3-difluoro-1-methylcyclobutyl)methyl)-N-(2-(S-methylsulfonimidoyl)pyridin-4-yl)-4-(trifluoromethyl)-1H-pyrazole-5-carboxamide]
C[S@@](=N)(=O)c1cc(NC(=O)c2c(C(F)(F)F)c(C3CC3)nn2C[C@]2(C)C[C@@H](C(F)(F)F)C2)ccn1 (single isomer, unassigned) [Example 86c, 3-cyclopropyl-1-(((cis)-1-methyl-3-(trifluoromethyl)cyclobutyl)methyl)-N-(2-(S-methylsulfonimidoyl)pyridin-4-yl)-4-(trifluoromethyl)-1H-pyrazole-5-carboxamide]
CS(=N)(=O)c1cc(NC(=O)c2c(C(F)(F)F)c(C3CC3)nn2CC2(C(F)(F)F)CCCC2)ccn1 (single isomer, unassigned) [Example 98a, 3-cyclopropyl-N-(2-(S-methylsulfonimidoyl)pyridin-4-yl)-4-(trifluoromethyl)-1-((1-(trifluoromethyl)cyclopentyl)methyl)-1H-pyrazole-5-carboxamide]
CC1(Cn2nc(C34CC(C3)C4)c(C(F)F)c2C(=O)Nc2ccnc(S(C)(=N)=O)c2)CC(F)(F)C1 (single isomer, unassigned) [Example 137a, 3-(Bicyclo[1.1.1]pentan-1-yl)-1-((3,3-difluoro-1-methylcyclobutyl)methyl)-4-(difluoromethyl)-N-(2-(S-methylsulfonimidoyl)pyridin-4-yl)-1H-pyrazole-5-carboxamide]
CC1(Cn2nc(C3(F)CC3)c(C(F)(F)F)c2C(=O)Nc2cccc(S(C)(=O)=NC(=O)C3COC3)c2)CC(F)(F)C1 (single isomer, unassigned) [Example 150b, 1-((3,3-Difluoro-1-methylcyclobutyl)methyl)-3-(1-fluorocyclopropyl)-N-(3-(S-methyl-N-(oxetane-3-carbonyl)sulfonimidoyl)phenyl)-4-(trifluoromethyl)-1H-pyrazole-5-carboxamide]
CS(=N)(=O)c1cc(NC(=O)c2c(C(F)(F)F)c(C3CC3)nn2CC23CC(C(F)(F)F)(C2)C3)ccn1 (single isomer, unassigned) [Example 23b, 3-cyclopropyl-N-(2-(S-methylsulfonimidoyl)pyridin-4-yl)-4-(trifluoromethyl)-1-((3-(trifluoromethyl)bicyclo[1.1.1]pentan-1-yl)methyl)-1H-pyrazole-5-carboxamide]
CS(=N)(=O)c1cc(NC(=O)c2c(C(F)(F)F)c(C3CC3)nn2CC23CC2CC(F)(F)C3)ccn1 (single isomer, unassigned) [Example 95c, 3-Cyclopropyl-1-((3,3-difluorobicyclo[3.1.0]hexan-1-yl)methyl)-N-(2-(S-methylsulfonimidoyl)pyridin-4-yl)-4-(trifluoromethyl)-1H-pyrazole-5-carboxamide]
CN=S(C)(=O)c1cc(NC(=O)c2c(C)c(C(C)(F)F)nn2CC2(C)CC(F)(F)C2)ccn1 (single isomer, unassigned) [Example 34a, 1-((3,3-Difluoro-1-methylcyclobutyl)methyl)-3-(1,1-difluoroethyl)-N-(2-(N,S-dimethylsulfonimidoyl)pyridin-4-yl)-4-methyl-1H-pyrazole-5-carboxamide]
CC1(Cn2nc(C34CC(F)(C3)C4)c(C(F)F)c2C(=O)Nc2cccc(S(C)(=N)=O)c2)CC(F)(F)C1 (single isomer, unassigned) [Example 113a, 1-((3,3-Difluoro-1-methylcyclobutyl)methyl)-4-(difluoromethyl)-3-(3-fluorobicyclo[1.1.1]pentan-1-yl)-N-(3-(S-methylsulfonimidoyl)phenyl)-1H-pyrazole-5-carboxamide]
CC1(Cn2nc(C3CC3)c(C(F)(F)F)c2C(=O)Nc2cccc(S(C)(=N)=O)c2)CC(F)(F)C1 (single isomer, unassigned) [Example 45a, 3-cyclopropyl-1-((3,3-difluoro-1-methylcyclobutyl)methyl)-N-(3-(S-methylsulfonimidoyl)phenyl)-4-(trifluoromethyl)-1H-pyrazole-5-carboxamide]
CS(=N)(=O)c1cc(NC(=O)c2c(C(F)(F)F)c(C3CC3)nn2CC23CC(CC2(F)F)C3)ccn1 (single isomer, unassigned) [Example 103b, 3-cyclopropyl-1-((2,2-difluorobicyclo[2.1.1]hexan-1-yl)methyl)-N-(2-(S-methylsulfonimidoyl)pyridin-4-yl)-4-(trifluoromethyl)-1H-pyrazole-5-carboxamide]
C[S@@](=N)(=O)c1cc(NC(=O)c2c(C(F)(F)F)c(C3CC3)nn2C[C@]2(C)C[C@H](C(F)(F)F)C2)ccn1 (single isomer, unassigned) [Example 86a, 3-cyclopropyl-1-(((trans)-1-methyl-3-(trifluoromethyl)cyclobutyl)methyl)-N-(2-(S-methylsulfonimidoyl)pyridin-4-yl)-4-(trifluoromethyl)-1H-pyrazole-5-carboxamide]
